The values below come from patent US9464084B2, “P2X7 modulators” (Janssen Pharmaceutica NV, priority 2013, dated 2016).

One assay concerns the target P2X7 (Homo sapiens (Human), UniProt Q99572). The experiment in a line: P2X7 antagonism in human PBMCs (LPS + Bz-ATP induced IL-1β release, ELISA).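 On all read-outs here: PBMCs from donor human blood, with a further 1.5 h incubation of the cells in the assay.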 Format: cell-based. As to conditions: LPS 30 ng/ml, Bz-ATP 0.5 mM; for PBMC 10 μM (% control): compound 10 μM; for PBMC 1 μM (% control): compound 1 μM. (In general: In an ELISA, binding on a coated surface is turned into a signal by an enzyme label.)

The next assay deals with rat P2X7 (Rattus norvegicus (Rat), UniProt Q64663). The experiment in a line: Ca2+ flux (FLIPR) in 1321N1 cells expressing recombinant rat P2X7 channel.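 Further: Calcium-4 dye fluorescence change read 180 s after agonist addition, following 30 min cell preincubation with test compound.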 As to conditions: 250 μM BzATP. The format is cell-based. On the technique in general: Calcium flux is commonly read through the fluorescence of an indicator in the cells.

Some results are limits rather than exact numbers.

P2X7, sequence (Q99572 whole entry): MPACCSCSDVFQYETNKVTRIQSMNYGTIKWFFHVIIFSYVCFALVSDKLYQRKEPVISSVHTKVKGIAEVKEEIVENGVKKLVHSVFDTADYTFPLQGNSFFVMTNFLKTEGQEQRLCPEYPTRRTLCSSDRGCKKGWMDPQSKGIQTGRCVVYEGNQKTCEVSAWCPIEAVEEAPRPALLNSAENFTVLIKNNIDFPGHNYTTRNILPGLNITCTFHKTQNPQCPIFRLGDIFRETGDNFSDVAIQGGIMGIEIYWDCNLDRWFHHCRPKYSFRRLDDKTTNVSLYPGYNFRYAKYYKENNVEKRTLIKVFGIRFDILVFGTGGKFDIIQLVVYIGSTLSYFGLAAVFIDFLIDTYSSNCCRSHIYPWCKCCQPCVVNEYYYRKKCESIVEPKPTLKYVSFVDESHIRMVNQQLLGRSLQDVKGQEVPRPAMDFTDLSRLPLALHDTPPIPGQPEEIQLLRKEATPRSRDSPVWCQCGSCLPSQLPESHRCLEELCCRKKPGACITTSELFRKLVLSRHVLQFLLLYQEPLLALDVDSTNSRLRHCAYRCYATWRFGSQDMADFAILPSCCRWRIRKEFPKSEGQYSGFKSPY
rat P2X7, sequence (Q64663 whole entry): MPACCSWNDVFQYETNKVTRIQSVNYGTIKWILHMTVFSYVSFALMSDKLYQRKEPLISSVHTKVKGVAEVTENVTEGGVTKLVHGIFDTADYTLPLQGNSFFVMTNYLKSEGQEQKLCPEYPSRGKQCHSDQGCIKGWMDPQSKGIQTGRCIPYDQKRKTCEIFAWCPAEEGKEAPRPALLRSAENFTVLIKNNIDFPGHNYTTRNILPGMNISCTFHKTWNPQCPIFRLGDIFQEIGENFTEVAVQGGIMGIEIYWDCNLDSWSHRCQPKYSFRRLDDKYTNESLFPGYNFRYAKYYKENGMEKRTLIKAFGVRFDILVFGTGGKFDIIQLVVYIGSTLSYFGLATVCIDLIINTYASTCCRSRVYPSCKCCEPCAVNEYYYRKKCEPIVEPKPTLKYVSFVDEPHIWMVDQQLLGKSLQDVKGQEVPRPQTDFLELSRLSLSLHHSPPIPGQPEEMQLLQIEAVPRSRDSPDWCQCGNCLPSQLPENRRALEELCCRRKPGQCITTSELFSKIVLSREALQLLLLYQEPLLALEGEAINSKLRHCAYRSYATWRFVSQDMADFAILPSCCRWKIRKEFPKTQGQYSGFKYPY

Usually IC50 stands for the point on the concentration scale where inhibition reaches its midpoint. Turning to `C[C@@H]1c2nnn(-c3ccn(CCF)n3)c2CCN1C(=O)c1cccc(C(F)(F)F)c1Cl` (single isomer, unassigned) [Example 171, (R*)-(2-Chloro-3-(trifluoromethyl)phenyl)(1-(1-(2-fluoroethyl)-1H-pyrazol-3-yl)-4-methyl-6,7-dihydro-1H-[1,2,3]triazolo[4,5-c]pyridin-5(4H)-yl)methanone], at P2X7, the “PBMC 10 μM (% control)” value was determined as 28.7 % control. The 50% inhibitory concentration (IC50) on rat P2X7 is more than 10 µM.

For the compound `Cc1cc(C)nc(-n2nnc3c2CCN(C(=O)c2cccc(C(F)(F)F)c2Cl)[C@@H]3C)n1` (single isomer, unassigned) [Example 181, (R*)-(2-chloro-3-(trifluoromethyl)phenyl)(1-(4,6-dimethylpyrimidin-2-yl)-4-methyl-6,7-dihydro-1H-[1,2,3]triazolo[4,5-c]pyridin-5(4H)-yl)methanone], the “PBMC 10 μM (% control)” value on P2X7 is −0.1 % control. Also, the concentration for half-maximal inhibition (IC50) at rat P2X7 was more than 10 µM.

With `C[C@H]1c2ncn(-c3ccccn3)c2CCN1C(=O)c1cccc(Cl)c1Cl` (single isomer, unassigned) [Example 191, (S*)-(2,3-Dichlorophenyl)(4-methyl-1-(pyridin-2-yl)-6,7-dihydro-1H-imidazo[4,5-c]pyridin-5(4H)-yl)methanone], the “PBMC 10 μM (% control)” value at P2X7 amounted to 5.2 % control. Besides, the half-maximal inhibitory concentration (IC50) at rat P2X7 was 1.3 µM. On the same counts, the results for `C[C@@H]1c2ncn(-c3ccccn3)c2CCN1C(=O)c1cccc(Cl)c1Cl` (single isomer, unassigned) [Example 192, (R*)-(2,3-Dichlorophenyl)(4-methyl-1-(pyridin-2-yl)-6,7-dihydro-1H-imidazo[4,5-c]pyridin-5(4H)-yl)methanone] are −6.3 % control and 10 µM.

`C[C@@H]1Cc2c(nnn2-c2cc(F)ccn2)CN1C(=O)c1cccc(Cl)c1Cl` (single isomer, unassigned) [Example 195, (6R*)-5-[(2,3-Dichlorophenyl)carbonyl]-1-(4-fluoropyridin-2-yl)-6-methyl-4,5,6,7-tetrahydro-1H-[1,2,3]triazolo[4,5-c]pyridine]: at P2X7, the “PBMC 10 μM (% control)” value was found to be 14.4 % control. The IC50 at rat P2X7 is 0.0108 µM. In the case of `C[C@H]1Cc2c(nnn2-c2cc(F)ccn2)CN1C(=O)c1cccc(Cl)c1Cl` (single isomer, unassigned) [Example 196, (6S*)-5-[(2,3-Dichlorophenyl)carbonyl]-1-(4-fluoropyridin-2-yl)-6-methyl-4,5,6,7-tetrahydro-1H-[1,2,3]triazolo[4,5-c]pyridine], on P2X7, the “PBMC 10 μM (% control)” value was −3.1 % control. The IC50 at rat P2X7 turned out to be 2.62 µM. Consider `C[C@@H]1c2n[nH]c(-c3ncc(F)cn3)c2CCN1C(=O)c1cccc(C(F)(F)F)c1Cl` (single isomer, unassigned) [Example 223, (R*)-(2-chloro-3-(trifluoromethyl)phenyl)(3-(5-fluoropyrimidin-2-yl)-7-methyl-4,5-dihydro-2H-pyrazolo[3,4-c]pyridin-6(7H)-yl)methanone], for which the “PBMC 10 μM (% control)” value on P2X7 was found to be 1.8 % control. For the same compound, the half-maximal inhibitory concentration (IC50) on rat P2X7 is 0.564 µM. On to `C[C@H]1Cc2c(nnn2-c2ncc(F)cn2)CN1C(=O)c1cc(C(F)(F)F)ccc1F` (single isomer, unassigned) [Example 232, (S*)-(2-fluoro-5-(trifluoromethyl)phenyl)(1-(5-fluoropyrimidin-2-yl)-6-methyl-6,7-dihydro-1H-[1,2,3]triazolo[4,5-c]pyridin-5(4H)-yl)methanone], for which the “PBMC 10 μM (% control)” value on P2X7 is reported as 7.5 % control. Besides, the IC50 on rat P2X7 was more than 10 µM. The corresponding values for `Cc1ccc(-n2nnc3c2CCN(C(=O)c2cccc(C(F)(F)F)c2Cl)[C@@H]3C)nc1` (single isomer, unassigned) [Example 255, (R*)-(2-chloro-3-(trifluoromethyl)phenyl)(4-methyl-1-(5-methylpyridin-2-yl)-6,7-dihydro-1H-[1,2,3]triazolo[4,5-c]pyridin-5(4H)-yl)methanone] are −5.5 % control and 0.211 µM. Turning to `C[C@H]1Cc2c(nnn2-c2ccccc2)CN1C(=O)c1cccc(C(F)(F)F)c1Cl` [Example 288, (S)-(2-chloro-3-(trifluoromethyl)phenyl)(6-methyl-1-phenyl-6,7-dihydro-1H-[1,2,3]triazolo[4,5-c]pyridin-5(4H)-yl)methanone], the “PBMC 10 μM (% control)” value on P2X7 is listed as 4.4 % control. As to `CC1Cc2c(nnn2-c2ccccc2)CN1C(=O)c1cccc(C(F)(F)F)c1Cl` (centres unmarked) [Example 290, (2-chloro-3-(trifluoromethyl)phenyl)(6-methyl-1-phenyl-6,7-dihydro-1H-[1,2,3]triazolo[4,5-c]pyridin-5(4H)-yl)methanone], the “PBMC 10 μM (% control)” value on P2X7 is given as −11.2 % control. Still for that read-out and setting: under `C[C@@H]1Cc2c(nnn2-c2ccn[nH]2)[C@@H](C)N1C(=O)c1cccc(C(F)(F)F)c1Cl` [Example 296, (2-chloro-3-(trifluoromethyl)phenyl)((4R,6R)-4,6-dimethyl-1-(1H-pyrazol-5-yl)-6,7-dihydro-1H-[1,2,3]triazolo[4,5-c]pyridin-5(4H)-yl)methanone] stands 3.6 % control; under `C[C@@H]1Cc2c(nnn2-c2ccn[nH]2)[C@H](C)N1C(=O)c1cccc(C(F)(F)F)c1Cl` [Example 297, (2-chloro-3-(trifluoromethyl)phenyl)((4S,6R)-4,6-dimethyl-1-(1H-pyrazol-5-yl)-6,7-dihydro-1H-[1,2,3]triazolo[4,5-c]pyridin-5(4H)-yl)methanone], 2.6 % control.

Take `Cc1ccnc(-n2nnc3c2CCN(C(=O)c2cccc(C(F)(F)F)c2Cl)C3C)c1` (centres unmarked) [Example 299, (2-chloro-3-(trifluoromethyl)phenyl)(4-methyl-1-(4-methylpyridin-2-yl)-6,7-dihydro-1H-[1,2,3]triazolo[4,5-c]pyridin-5(4H)-yl)methanone]: the “PBMC 10 μM (% control)” value on P2X7 was found to be 1.5 % control.

Consider `C[C@H]1Cc2c(nnn2-c2ncc(F)cn2)CN1C(=O)c1cccc(C(F)(F)F)c1` [Example 304, (S)-(1-(5-fluoropyrimidin-2-yl)-6-methyl-6,7-dihydro-1H-[1,2,3]triazolo[4,5-c]pyridin-5(4H)-yl)(3-(trifluoromethyl)phenyl)methanone], for which, at P2X7, the “PBMC 10 μM (% control)” value is 3.2 % control. As for `C[C@@H]1Cc2c(nnn2-c2ccn[nH]2)[C@H](C)N1C(=O)c1cccc(C(F)(F)F)c1Cl` [Example 309, (2-chloro-3-(trifluoromethyl)phenyl)((4S,6R)-4,6-dimethyl-1-(1H-pyrazol-5-yl)-6,7-dihydro-1H-[1,2,3]triazolo[4,5-c]pyridin-5(4H)-yl)methanone], at P2X7, the “PBMC 10 μM (% control)” value is 1.4 % control. On the same count and under the same terms, the result for `C[C@@H]1c2nnn(-c3ccn[nH]3)c2C[C@H](C)N1C(=O)c1cccc(C(F)(F)F)c1Cl` [Example 310, (2-chloro-3-(trifluoromethyl)phenyl)((4R,6S)-4,6-dimethyl-1-(1H-pyrazol-5-yl)-6,7-dihydro-1H-[1,2,3]triazolo[4,5-c]pyridin-5(4H)-yl)methanone] reads 12.2 % control; that for `CC1Cc2c(nnn2-c2ncc(F)cn2)CN1C(=O)c1cccc(C(F)(F)F)c1F` (centres unmarked) [Example 311, (2-fluoro-3-(trifluoromethyl)phenyl)(1-(5-fluoropyrimidin-2-yl)-6-methyl-6,7-dihydro-1H-[1,2,3]triazolo[4,5-c]pyridin-5(4H)-yl)methanone], 63.6 % control; that for `O=C(c1cccc(C(F)(F)F)c1Cl)N1CCc2c(ncn2-c2ccc(F)cn2)C1` [Example 315, (2-chloro-3-(trifluoromethyl)phenyl)(1-(5-fluoropyridin-2-yl)-6,7-dihydro-1H-imidazo[4,5-c]pyridin-5(4H)-yl)methanone], 8.8 % control.

With `C[C@H]1Cc2c(nnn2-c2ccn[nH]2)[C@H](C)N1C(=O)c1cccc(C(F)(F)F)c1Cl` [Example 319, (2-chloro-3-(trifluoromethyl)phenyl)((4S,6S)-4,6-dimethyl-1-(1H-pyrazol-5-yl)-6,7-dihydro-1H-[1,2,3]triazolo[4,5-c]pyridin-5(4H)-yl)methanone], on P2X7, the “PBMC 10 μM (% control)” value is −6.8 % control.

For `C[C@@H]1Cc2c(nnn2-c2ccn[nH]2)[C@@H](C)N1C(=O)c1cccc(C(F)(F)F)c1Cl` [Example 320, (2-chloro-3-(trifluoromethyl)phenyl)((4R,6R)-4,6-dimethyl-1-(1H-pyrazol-5-yl)-6,7-dihydro-1H-[1,2,3]triazolo[4,5-c]pyridin-5(4H)-yl)methanone], at P2X7, the “PBMC 10 μM (% control)” value is on record as −19.7 % control. For the compound `O=C(c1cccnc1C(F)(F)F)N1CCc2c(-c3ccccc3)n[nH]c2C1` [Example 322, (3-phenyl-4,5-dihydro-1H-pyrazolo[3,4-c]pyridin-6(7H)-yl)(2-(trifluoromethyl)pyridin-3-yl)methanone], the “PBMC 1 μM (% control)” value at P2X7 was 100.4 % control.

With `O=C(c1ccc(F)cc1Cl)N1CCc2c(-c3ccccc3)n[nH]c2C1` [Example 323, (2-chloro-4-fluorophenyl)(3-phenyl-4,5-dihydro-1H-pyrazolo[3,4-c]pyridin-6(7H)-yl)methanone], the “PBMC 1 μM (% control)” value at P2X7 came to 102.4 % control. Still for that read-out and setting: under `O=C(c1c(Cl)cccc1Cl)N1CCc2c(-c3ccccc3)n[nH]c2C1` [Example 324, (2,6-dichlorophenyl)(3-phenyl-4,5-dihydro-1H-pyrazolo[3,4-c]pyridin-6(7H)-yl)methanone] stands 100.4 % control; under `O=C(c1c(F)cccc1Cl)N1CCc2c(-c3ccccc3)n[nH]c2C1` [Example 325, (2-chloro-6-fluorophenyl)(3-phenyl-4,5-dihydro-1H-pyrazolo[3,4-c]pyridin-6(7H)-yl)methanone], 99.7 % control; under `Cn1nc2c(c1-c1ccc(F)cc1)CCN(C(=O)c1cccc(Cl)c1Cl)C2` [Example 326, (2,3-dichlorophenyl)(3-(4-fluorophenyl)-2-methyl-4,5-dihydro-2H-pyrazolo[3,4-c]pyridin-6(7H)-yl)methanone], 92.0 % control.
